US7235584B2, “Non-psychotropic cannabinoids” (Pharmos Corporation, priority 2000, dated 2007)

How the values were obtained:
[1] = system: T1, nitric oxide synthase (NOS); assay: Inhibition of nitric oxide synthase, fluorimetric nitrite assay in LPS-stimulated macrophage supernatants; format: cell-based; conditions: macrophage cell cultures
T1 construct: endogenous in cells
Procedure: As one aspect of the anti-oxidative potential of the novel analogs they were tested for their ability to inhibit the enzyme nitric oxide synthase (NOS). This assay can also serve as another indication of the anti-inflammatory cascade, as well as the anti-oxidative mechanisms.
The final products of NOS are Nitrite (NO2) and Nitrate (NO3). The in vitro fluorimetric assay provides an accurate method for the measurement of the Nitrite, which is the majority of NO products. The principle of the fluorimetric assay is based on the addition of DAN (2,3-diaminonaphthalene) to the aliquots of the supernatants collected from macrophage cell cultures incubated with the new analogs and stimulated with LPS. Following, NaOH was added to convert Nitrite to a fluorescent compound 1(H)-naphthtriazole. The fluorescence was measured immediately in a fluorimeter using excitation wavelength of 365 nm and an emission wavelength of 450 nm.

[2] = system: tail flick model in mice; assay: Tail flick model: analgesic effect and tolerance to morphine; format: in vivo, ICR male mice; conditions: for analgesic activity administered separately: escalating doses of up to 10 mg/kg i.p.
Text: A mice model of acute pain, the tail flick model, was used to test the ability of compounds to prolong the analgesic activity of opioids, by preventing the development of tolerance, and their ability to reverse established tolerance.
The following animal model of acute pain was used to assess the potential analgesic effects of test compounds either alone or in combination with morphine. […] In this model the nociceptive stimulus is thermal and the latency time till the animal flicks its tail is monitored (Le Bars D., Gozariu M. & Cadden S. W., Pharmacol. Rev. 53: 597–652, 2001).
Hyperalgesia to radiant heat was assessed as follows. ICR male mice (20–30 g average body weight, Harlan, Israel) were injected with test compounds i.p. at the volume dose of 5 ml/kg. Each treatment group contained at least 6 animals. The test compounds were dissolved in Cremophor®:ethanol (70:30 weight/weight) and diluted 1:20 in saline prior to injection. Morphine HCl was directly dissolved in saline. Its vehicle was also included as control. Pain threshold was determined 30 minutes post-administration by measuring the foot-withdrawal latency defined as the time from the onset of radiant heat to foot withdrawal. The cut-off time was preset to 10 seconds in order to prevent tissue damage. […] Test compounds (5 mg/kg) and vehicle (5 ml/kg) were administered 15 minutes before morphine and pain threshold was determined 30 minutes after the first injection of morphine on day 1, 5, 8 and 10. […] Pain threshold was determined on day 1 and 10.
In each type of study, the animals were tested on given days 30 minutes after morphine injection in the tail flick apparatus (Socrel, model DS 20). Animals were gently held while their tails were located above the photoelectric cell. The tails were then illuminated (21V) at 2 cm from the distal tip and the latency time, measured in seconds, was recorded in duplicates. The results are expressed either as absolute latency time or as percent of animals that enjoyed significant analgesia as measured by the fact that their latency time is at least twice the latency time for vehicle treated animals. At the end of the study, the animals were euthanized by i.p. injection of 100 mg/kg sodium pentobarbitone.
The differences between the latency times among various treatment groups was analyzed by analysis of variance (ANOVA) followed by post-hoc Duncan test. The differences between the % of animals showing analgesia among various treatment groups was analyzed by analysis of variance (ANOVA) followed by post-hoc Fisher exact test. A value of p<0.05 is considered to be statistically significant.

[3] = system: NMDA receptor; assay: [3H]MK-801 displacement radioligand binding, rat forebrain membranes
Procedure: The identification of possible recognition sites for PRS-211 analogs was carried out by measuring the ability of these PRS-211 analogs to inhibit the binding of MK-801 to rat forebrain membranes.
Brains were removed from Sprague-Dawley rats no more than 5 min after decapitation. Membrane preparations were isolated according to a procedure described previously (Eshhar et al., Brain Res. 476:57, 1989). Prior to radioligand binding measurements, endogenous glutamate present in membranes was removed from the preparation by subjecting the membranes to 3–4 successive washings in 10 mM Tris HCl pH 7.2, performed at 4° C.
The specific binding of the new analogs to NMDA receptors was determined by their ability to displace [^3H]MK-801 from NMDA receptor in rat forebrain preparations. Specifically, rat-forebrain membranes (0.1 mg) were incubated for 2 hours at room temperature with 10 nM of tritiated MK-801 and with the PRS-211 compounds at 3 doses each. Non-specific binding was determined by the use of 0.1 mM MK-801. Following the incubation, bound radioligand was separated from unbound by filtration through GF/B filters. The filters were counted in a β-counter and log of analog concentrations versus % of [^3H]MK-801 specific binding was plotted. The IC50 was calculated from this plot.
Binding of [^3H]MK-801 to membranes was carried out in the presence of 30 μM glycine and 10 μM L-glutamate. Membranes (250 μg protein) were resuspended in 50 mM tris-acetate pH 7.4 buffer and incubated with 10 nM [^3H]MK-801, either alone or in the presence of PRS-211 compounds at 0.1–100 μM concentrations for three hours at room temperature (RT). Reaction buffers used in the different radioligand binding studies contained 10% of an ethanol/Emulphor 620/deionized water mixture. The ratio (by volume) of the respective components in the mixture was 20/3/57. This mixture is required for solubilizing PRS-211 compounds at concentrations above 30 μM. Reaction volume was 1 ml. Non-specific [^3H]MK-801 binding was determined in the presence of 100 μM unlabeled MK-801.
Concentration dependence of certain PRS-211 analogs on inhibition of [^3H]MK-801 binding is illustrated in FIG. 1.

T1 sequence (P35228 whole entry): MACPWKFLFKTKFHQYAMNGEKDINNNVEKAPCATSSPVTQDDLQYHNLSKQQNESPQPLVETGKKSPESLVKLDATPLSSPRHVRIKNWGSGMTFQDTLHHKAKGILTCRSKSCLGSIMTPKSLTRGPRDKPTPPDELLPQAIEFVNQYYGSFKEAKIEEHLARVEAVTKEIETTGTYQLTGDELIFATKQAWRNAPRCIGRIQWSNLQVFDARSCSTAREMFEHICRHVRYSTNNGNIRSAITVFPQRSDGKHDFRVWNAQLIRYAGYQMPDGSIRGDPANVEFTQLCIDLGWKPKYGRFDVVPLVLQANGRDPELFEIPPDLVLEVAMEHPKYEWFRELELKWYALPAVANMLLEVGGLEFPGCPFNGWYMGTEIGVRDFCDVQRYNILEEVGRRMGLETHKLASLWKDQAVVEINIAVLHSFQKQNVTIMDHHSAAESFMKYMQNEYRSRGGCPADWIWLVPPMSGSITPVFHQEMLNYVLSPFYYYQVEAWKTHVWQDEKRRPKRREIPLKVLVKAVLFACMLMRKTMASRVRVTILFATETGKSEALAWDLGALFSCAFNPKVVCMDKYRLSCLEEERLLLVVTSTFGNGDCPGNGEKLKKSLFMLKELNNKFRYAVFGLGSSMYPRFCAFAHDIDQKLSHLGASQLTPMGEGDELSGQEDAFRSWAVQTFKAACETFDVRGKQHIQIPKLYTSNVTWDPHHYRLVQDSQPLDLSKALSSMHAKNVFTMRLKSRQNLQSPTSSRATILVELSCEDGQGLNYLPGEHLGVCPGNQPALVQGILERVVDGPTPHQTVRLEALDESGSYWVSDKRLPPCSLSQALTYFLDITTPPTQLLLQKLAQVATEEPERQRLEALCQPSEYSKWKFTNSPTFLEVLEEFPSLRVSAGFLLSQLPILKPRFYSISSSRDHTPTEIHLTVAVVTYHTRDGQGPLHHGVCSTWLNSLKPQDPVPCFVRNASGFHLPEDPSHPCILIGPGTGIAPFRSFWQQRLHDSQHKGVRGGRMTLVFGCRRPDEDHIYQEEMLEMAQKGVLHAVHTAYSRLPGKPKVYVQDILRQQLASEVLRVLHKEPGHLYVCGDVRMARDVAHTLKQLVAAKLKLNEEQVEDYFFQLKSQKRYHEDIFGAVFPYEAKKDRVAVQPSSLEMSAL

SMILES	inhibition at 10 µM [1]	analgesic activity administered separately [2]	NMDA receptor binding / affinity (in words) [3]	Ki ([3]; rat forebrain membranes, read-out: inhibition constant (KI) of [3H]MK-801 binding)	IC50 ([3]; rat forebrain membranes, read-out: mean IC50 of [3H]MK-801 binding (FIG. 2))	development of tolerance to morphine ([2]; 5 mg/kg in combination with 10 mg/kg i.p. morphine over 10 days)	reversal of established tolerance to morphine ([2]; in combination with morphine from day 11, tested day 12, 15, 17, PRS-211,220 5 mg/kg, dextromethorphan 20 mg/kg)
CCCCCCC(C)(C)c1cc(O)c2c(c1)OC(C)(C)C1CC=C(CSc3ncc[nH]3)CC21 (single isomer, unassigned; (+)) [211,092-000]	86%	no significant analgesic activity	low affinity	–	–	–	–
CCCCCCC(C)(C)c1cc(O)c2c(c1)OC(C)(C)[C@H]1CC=C(CO)CC21 (stereo partly drawn) [211,007-000, 1,1 dimethyl heptyl-(3S,4S)-7-hydroxy-Δ^6-tetrahydrocannabinol]	20%	–	competes with the binding of MK-801 to membranes	11 ± 1.3 µM	10 µM	–	–
CCCCCCC(C)(C)c1cc(O)c2c(c1)OC(C)(C)[C@H]1CC=C(Cn3cccn3)C[C@H]21 [211,220-000, (+)-(3S,4S)-6,6-Dimethyl-(1,1-dimethylheptyl)-1-hydroxy-9-(pyrazolomethyl)-6a,7,10,10a-tetrahydro-6H-dibenzo[b,d]pyran]	24%	no significant analgesic activity	relatively high affinity	–	–	effective in reducing the development of tolerance toward opioid	trend of reversal at all time points tested which became statistically significant on day 17
CCCCCCC(C)(C)c1cc(O)c2c(c1)OC(C)(C)C1CC=C(Cn3ccnc3)CC21.Cl (single isomer, unassigned; (+)) [211,095-000, (+)-(3S ,4S )-6,6-Dimethyl-(1,1-dimethylheptyl)-1-hydroxy-9-(imidazolomethyl)-6a,7,10,10a-tetrahydro-6H-dibenzo[b,d]pyran]	34%	no significant analgesic activity	relatively high affinity	–	–	–	–
